In patent US9126999B2, “Tetrahydropyrazolopyrimidine compounds” (EISAI R&D MANAGEMENT CO., LTD., priority 2012, dated 2015):

How the values were obtained:
[1] = molecular target: T1, Mouse TLR7 (Mus musculus, UniProt P58681); assay: HEK-293 NF-kappaB luciferase reporter assay, CL097 stimulus; assay type: cell-based; details: ligand CL097, analyte NFkB-luciferase
T1 construct: endogenous in cells; host or cells: female BALB/c mice, in vivo
T1 sequence (P58681 27-1050): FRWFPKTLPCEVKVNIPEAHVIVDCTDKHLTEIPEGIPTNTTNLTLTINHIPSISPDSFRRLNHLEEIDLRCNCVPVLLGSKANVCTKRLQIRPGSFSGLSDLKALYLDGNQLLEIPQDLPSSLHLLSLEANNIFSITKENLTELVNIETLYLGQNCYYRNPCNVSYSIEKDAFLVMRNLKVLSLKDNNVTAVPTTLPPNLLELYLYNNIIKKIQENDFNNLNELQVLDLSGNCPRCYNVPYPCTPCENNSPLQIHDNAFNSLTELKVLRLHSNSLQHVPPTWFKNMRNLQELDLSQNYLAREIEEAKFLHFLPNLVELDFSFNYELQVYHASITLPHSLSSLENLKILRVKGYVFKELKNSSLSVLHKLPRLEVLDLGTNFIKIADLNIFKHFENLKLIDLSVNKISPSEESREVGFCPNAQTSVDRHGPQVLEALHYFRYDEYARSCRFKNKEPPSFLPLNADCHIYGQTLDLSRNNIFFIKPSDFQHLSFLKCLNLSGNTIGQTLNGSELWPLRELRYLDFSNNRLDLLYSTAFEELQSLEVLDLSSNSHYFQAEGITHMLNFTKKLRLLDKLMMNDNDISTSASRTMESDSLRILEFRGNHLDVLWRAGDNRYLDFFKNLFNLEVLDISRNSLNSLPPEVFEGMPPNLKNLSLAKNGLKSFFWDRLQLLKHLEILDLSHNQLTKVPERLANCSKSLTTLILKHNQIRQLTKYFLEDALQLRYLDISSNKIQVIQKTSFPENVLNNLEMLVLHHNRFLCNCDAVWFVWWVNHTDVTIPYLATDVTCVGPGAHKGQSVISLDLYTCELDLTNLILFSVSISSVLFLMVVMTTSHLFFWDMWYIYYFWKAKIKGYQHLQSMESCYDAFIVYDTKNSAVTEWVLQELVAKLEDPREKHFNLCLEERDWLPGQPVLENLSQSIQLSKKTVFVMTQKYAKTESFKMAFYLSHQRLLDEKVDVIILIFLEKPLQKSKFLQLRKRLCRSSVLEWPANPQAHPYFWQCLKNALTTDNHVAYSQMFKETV
Source text: In vitro pharmacology: HEK-293 cells (ATCC) were engineered to stably express a NF-kappaB transcription factor inducible E-selectin (ELAM-1) luciferase reporter derived from the plasmid pGL3 (Promega) containing base pairs −2241 bp to −254 bp from the promoter of the human E-selectin gene (Accession No. NM_000450). These cells were then subsequently engineered to stably and individually express human TLR4, TLR7 or TLR9 full-length ORF cDNAs. Human TLR4 cDNA (Accession No. NM_138554) was cloned into pcDNA 3.0 expression vector (Invitrogen). TLR4 transfected cells were also engineered to express human MD-2 co-receptor [MD-2 cDNA (Accession No. NM_015364) was cloned into the pEF-BOS vector] and were supplemented with 10 nM soluble CD14 (R&D Systems) in the media to optimize LPS responsiveness. Human TLR9 cDNA (Accession No. NM_017442) was cloned into the pBluescript II KS vector (Agilent). Human TLR7 cDNA (Accession No. NM_016562) was obtained from OriGene. HEK-293 cells stably expressing human TLR8 (Accession No. NM_138636) or mouse TLR7 (Accession No. NM_133211) were purchased from InvivoGen and were then stably transfected with pNiFty2(NF-kappaB)-luciferase reporter plasmid (InvivoGen). Each cell type was plated in Dulbecco's modified Eagle's medium (DMEM) containing 10% fetal bovine serum (FBS) at a density of 2.22×10^5 cells/ml into a 384-well plate and incubated for 2 days at 37° C., 5% CO2. Varying concentrations of antagonist compounds were then added. Cells were then incubated for another 30 minutes before adding the appropriate TLR agonist as follows (final concentrations indicated): lipopolysaccharide (LPS; Sigma) at 10 ng/ml for TLR4, CL097 (InvivoGen) at 3 ug/ml for human TLR7 and TLR8 and mouse TLR7, and CpG-2006-2A [sequence: […] (SEQ ID NO: 1) with phosphorothioate backbone, synthesized by Sigma-Aldrich] at 0.6 uM for TLR9.

[2] = test system: T2, Human TLR7/8; assay: Human PBMC cell-based assay, RNA-Ig (SL4-Ig) stimulus, cytokine ELISA; details: Hu PBMC; ligand RNA-Ig; analyte IP-10
T2 construct: IC50; other: Hu PBMC; ligand RNA-Ig; analyte IP-10
Summary of the method: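 Ficoll-isolated human PBMC treated in triplicate with antagonist (final 0.1% DMSO), then stimulated with RNA-Ig (SL4-Ig) complex preincubated 15-30 min. Incubation 20 h at 37° C., 5% CO2; supernatant cytokines quantified by ELISA.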

Which results are given for `COc1ccc([C@@H]2C[C@H](C(F)(F)F)n3nc(-c4ccc(C(=O)N5CCNCC5)cc4)cc3N2)cc1OC` [ER-892887, (4-((5S,7R)-5-(3,4-dimethoxyphenyl)-7-(trifluoromethyl)-4,5,6,7-tetrahydropyrazolo[1,5-a]pyrimidin-2-yl)phenyl)(piperazin-1-yl)methanone]?
IC50 [1]: 276 nM; IC50 [2]: 45 nM
